Results on 31 molecules are retold here after patent publication US20140171429A1, “BICYCLIC INHIBITORS OF ALK” (ABBVIE INC., priority 2011, published 2014).

Bounds are passed on as bounds.

T1 sequence (Q9UM73 19-1620): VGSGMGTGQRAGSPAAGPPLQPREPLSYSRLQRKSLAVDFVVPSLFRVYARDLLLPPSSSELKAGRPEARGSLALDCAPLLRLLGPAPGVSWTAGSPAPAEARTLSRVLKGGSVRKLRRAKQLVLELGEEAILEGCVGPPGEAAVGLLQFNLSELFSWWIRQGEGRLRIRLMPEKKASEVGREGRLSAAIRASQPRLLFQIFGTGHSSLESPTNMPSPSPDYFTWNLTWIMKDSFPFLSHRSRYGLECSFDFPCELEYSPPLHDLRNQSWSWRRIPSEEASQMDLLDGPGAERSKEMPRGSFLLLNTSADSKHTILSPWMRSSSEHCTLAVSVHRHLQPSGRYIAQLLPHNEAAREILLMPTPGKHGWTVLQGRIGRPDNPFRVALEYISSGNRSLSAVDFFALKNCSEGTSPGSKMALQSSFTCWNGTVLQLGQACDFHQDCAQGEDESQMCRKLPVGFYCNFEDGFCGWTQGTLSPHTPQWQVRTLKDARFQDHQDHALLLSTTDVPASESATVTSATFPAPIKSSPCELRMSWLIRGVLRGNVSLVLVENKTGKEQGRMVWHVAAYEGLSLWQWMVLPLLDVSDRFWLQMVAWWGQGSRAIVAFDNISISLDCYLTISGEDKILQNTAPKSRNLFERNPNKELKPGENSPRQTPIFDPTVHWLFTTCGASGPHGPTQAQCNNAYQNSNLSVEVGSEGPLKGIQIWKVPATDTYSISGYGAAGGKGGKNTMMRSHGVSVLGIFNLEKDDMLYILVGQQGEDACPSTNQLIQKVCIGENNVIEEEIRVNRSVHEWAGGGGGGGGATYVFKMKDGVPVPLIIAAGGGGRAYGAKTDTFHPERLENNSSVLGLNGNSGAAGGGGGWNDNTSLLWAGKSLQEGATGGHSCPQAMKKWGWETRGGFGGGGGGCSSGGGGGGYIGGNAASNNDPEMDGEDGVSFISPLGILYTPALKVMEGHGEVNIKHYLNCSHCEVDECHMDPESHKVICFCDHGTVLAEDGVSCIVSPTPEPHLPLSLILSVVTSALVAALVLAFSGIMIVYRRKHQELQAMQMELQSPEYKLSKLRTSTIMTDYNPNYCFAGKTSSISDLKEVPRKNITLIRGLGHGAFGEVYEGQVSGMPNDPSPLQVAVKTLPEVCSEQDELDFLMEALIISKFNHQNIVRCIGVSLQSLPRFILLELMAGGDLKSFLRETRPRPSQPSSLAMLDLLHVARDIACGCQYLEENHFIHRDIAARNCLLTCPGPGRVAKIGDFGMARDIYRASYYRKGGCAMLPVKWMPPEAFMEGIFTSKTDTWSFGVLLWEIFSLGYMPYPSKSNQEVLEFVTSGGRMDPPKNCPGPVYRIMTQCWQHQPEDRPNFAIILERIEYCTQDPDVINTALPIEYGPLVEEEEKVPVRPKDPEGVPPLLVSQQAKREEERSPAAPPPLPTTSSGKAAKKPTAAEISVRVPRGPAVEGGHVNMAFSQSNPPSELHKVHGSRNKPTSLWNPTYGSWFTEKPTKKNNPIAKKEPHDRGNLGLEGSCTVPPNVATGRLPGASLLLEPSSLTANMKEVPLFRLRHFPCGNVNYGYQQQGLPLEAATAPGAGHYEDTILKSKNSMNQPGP

This test concerns the target T1, ALK (Homo sapiens, UniProt Q9UM73).
T1 construct: purchased Millipore
The experiment in a line: ALK kinase assay (HTRF_ALK). Type of test: biochemical. The conditions noted are these: apparent Ki converted from IC50 by the Cheng-Prusoff relationship; ALK (Millipore), 50 μM ATP, 1 h at room temperature.
Take `COc1cc(C(=O)NCCCCN(C)C)ccc1Nc1nc(Cc2c(Cl)cccc2Cl)cc2cc[nH]c(=O)c12` [Example 28, 4-{[3-(2,6-dichlorobenzyl)-8-oxo-7,8-dihydro-2,7-naphthyridin-1-yl]amino}-N-[4-(dimethylamino)butyl]-3-methoxybenzamide]: the Ki is 36 nM.

With `COc1cc(N2CCNCC2)ccc1Nc1nc(Cc2c(Cl)cccc2Cl)cc2cc[nH]c(=O)c12` [Example 8, 6-(2,6-dichlorobenzyl)-8-{[2-methoxy-4-(piperazin-1-yl)phenyl]amino}-2,7-naphthyridin-1(2H)-one], the Ki stood at 3 nM.

Consider `O=c1[nH]cnc2cc(Cc3c(Cl)cccc3Cl)nc(Nc3ccc(N4CCNCC4)cc3)c12` [Example 7, 7-(2,6-dichlorobenzyl)-5-{[4-(piperazin-1-yl)phenyl]amino}pyrido[4,3-d]pyrimidin-4(3H)-one], for which the Ki worked out at 10 nM.

As for `COc1cc(C(=O)NCCN(C)C)ccc1Nc1cc(Cc2c(Cl)cccc2Cl)nc2cc[nH]c(=O)c12` [Example 23, 4-{[2-(2,6-dichlorobenzyl)-5-oxo-5,6-dihydro-1,6-naphthyridin-4-yl]amino}-N-[2-(dimethylamino)ethyl]-3-methoxybenzamide], the Ki worked out at 12 nM. The figure for `COc1cc(C(=O)NCCN2CCCCC2)ccc1Nc1nc(Cc2c(Cl)cccc2Cl)cc2cc[nH]c(=O)c12` [Example 27, 4-{[3-(2,6-dichlorobenzyl)-8-oxo-7,8-dihydro-2,7-naphthyridin-1-yl]amino}-3-methoxy-N-[2-(piperidin-1-yl)ethyl]benzamide] is 17 nM; for `COc1cc(C(=O)NCCCCN(C)C)ccc1Nc1cc(Cc2c(Cl)cccc2Cl)nc2cc[nH]c(=O)c12` [Example 30, 4-{[2-(2,6-dichlorobenzyl)-5-oxo-5,6-dihydro-1,6-naphthyridin-4-yl]amino}-N-[4-(dimethylamino)butyl]-3-methoxybenzamide] it is 20 nM; for `COc1cc(C(=O)N2CCNCC2)ccc1Nc1cc(Cc2c(Cl)cccc2Cl)nc2cc[nH]c(=O)c12` [Example 29, 2-(2,6-dichlorobenzyl)-4-{[2-methoxy-4-(piperazin-1-ylcarbonyl)phenyl]amino}-1,6-naphthyridin-5(6H)-one] it is 11 nM. For the molecule `O=c1[nH]ccc2nc(Cc3c(Cl)cccc3Cl)cc(Nc3ccc(N4CCNCC4)c(F)c3)c12` [Example 13, 2-(2,6-dichlorobenzyl)-4-(3-fluoro-4-(piperazin-1-yl)phenylamino)-1,6-naphthyridin-5(6H)-one], the Ki is 3 nM. For the molecule `COc1cc(N2CCNCC2)ccc1Nc1nc(Cc2c(Cl)cccc2Cl)nc2nc[nH]c(=O)c12` [Example 12, 7-(2,6-dichlorobenzyl)-5-{[2-methoxy-4-(piperazin-1-yl)phenyl]amino}pyrimido[4,5-d]pyrimidin-4(3H)-one], the Ki is 13 nM. Take `COc1cc(N2CCN(C)CC2)ccc1Nc1nc(Cc2c(Cl)cccc2Cl)cc2cc[nH]c(=O)c12` [Example 4, 6-(2,6-dichlorobenzyl)-8-{[2-methoxy-4-(4-methylpiperazin-1-yl)phenyl]amino}-2,7-naphthyridin-1(2H)-one]: the Ki amounted to 64 nM. With `O=c1[nH]ccc2cc(Cc3c(F)cccc3Cl)nc(Nc3ccc(N4CCNCC4)cc3)c12` [Example 16, 6-(2-chloro-6-fluorobenzyl)-8-{[4-(piperazin-1-yl)phenyl]amino}-2,7-naphthyridin-1(2H)-one], the Ki turned out to be 480 nM. With `COc1cc(C(=O)NCCCN2CCOCC2)ccc1Nc1cc(Cc2c(Cl)cccc2Cl)nc2cc[nH]c(=O)c12` [Example 18, 4-{[2-(2,6-dichlorobenzyl)-5-oxo-5,6-dihydro-1,6-naphthyridin-4-yl]amino}-3-methoxy-N-[3-(morpholin-4-yl)propyl]benzamide], the Ki worked out at 51 nM. Turning to `COc1cc(C(=O)N2CCN(C)CC2)ccc1Nc1cc(Cc2c(Cl)cccc2Cl)nc2cc[nH]c(=O)c12` [Example 20, 2-(2,6-dichlorobenzyl)-4-({2-methoxy-4-[(4-methylpiperazin-1-yl)carbonyl]phenyl}amino)-1,6-naphthyridin-5(6H)-one], the Ki was found to be 51 nM. With `COc1cc(C(=O)NCCN2CCCCC2)ccc1Nc1cc(Cc2c(Cl)cccc2Cl)nc2cc[nH]c(=O)c12` [Example 24, 4-{[2-(2,6-dichlorobenzyl)-5-oxo-5,6-dihydro-1,6-naphthyridin-4-yl]amino}-3-methoxy-N-[2-(piperidin-1-yl)ethyl]benzamide], the Ki was found to be 8 nM.

As to `COc1cc(N2CCN(C)CC2)ccc1Nc1cc(Cc2c(Cl)cccc2Cl)nc2cc[nH]c(=O)c12` [Example 1, 2-(2,6-dichlorobenzyl)-4-{[2-methoxy-4-(4-methylpiperazin-1-yl)phenyl]amino}-1,6-naphthyridin-5 (6H)-one], the Ki came out at 8 nM.

For `COc1cc(C(=O)NCCCN2CCOCC2)ccc1Nc1nc(Cc2c(Cl)cccc2Cl)cc2cc[nH]c(=O)c12` [Example 19, 4-{[3-(2,6-dichlorobenzyl)-8-oxo-7,8-dihydro-2,7-naphthyridin-1-yl]amino}-3-methoxy-N-[3-(morpholin-4-yl)propyl]benzamide], the Ki is 25 nM. Regarding `O=c1[nH]ccc2nc(Cc3c(Cl)cccc3Cl)nc(Nc3ccc(N4CCNCC4)cc3)c12` [Example 15, 2-(2,6-dichlorobenzyl)-4-{[4-(piperazin-1-yl)phenyl]amino}pyrido[4,3-d]pyrimidin-5(6H)-one], the Ki amounted to 1450 nM.

As to `COc1cc(C(=O)N2CCN(C)CC2)ccc1Nc1nc(Cc2c(Cl)cccc2Cl)cc2cc[nH]c(=O)c12` [Example 17, 6-(2,6-dichlorobenzyl)-8-({2-methoxy-4-[(4-methylpiperazin-1-yl)carbonyl]phenyl}amino)-2,7-naphthyridin-1(2H)-one], the Ki is more than 1000 nM. Take `COc1cc(C(=O)NCCN2CCCC2)ccc1Nc1cc(Cc2c(Cl)cccc2Cl)nc2cc[nH]c(=O)c12` [Example 21, 4-{[2-(2,6-dichlorobenzyl)-5-oxo-5,6-dihydro-1,6-naphthyridin-4-yl]amino}-3-methoxy-N-[2-(pyrrolidin-1-yl)ethyl]benzamide]: the Ki was found to be 25 nM.

Regarding `COc1cc(N2CCN(C)CC2)ccc1Nc1nc(Cc2c(Cl)cccc2Cl)cc2nc[nH]c(=O)c12` [Example 5, 7-(2,6-dichlorobenzyl)-5-{[2-methoxy-4-(4-methylpiperazin-1-yl)phenyl]amino}pyrido[4,3-d]pyrimidin-4(3H)-one], the Ki was 7 nM.

With `O=c1[nH]ccc2cc(Cc3c(Cl)cccc3Cl)nc(Nc3ccc(N4CCNCC4)cc3)c12` [Example 9, 6-(2,6-dichlorobenzyl)-8-{[4-(piperazin-1-yl)phenyl]amino}-2,7-naphthyridin-1(2H)-one], the Ki was 14 nM. Regarding `COc1cc(N2CCNCC2)ccc1Nc1nc(Cc2c(Cl)cccc2Cl)cc2nc[nH]c(=O)c12` [Example 6, 7-(2,6-dichlorobenzyl)-5-{[2-methoxy-4-(piperazin-1-yl)phenyl]amino}pyrido[4,3-d]pyrimidin-4(3H)-one], the Ki was 6 nM.

Consider `COc1cc(N2CCNCC2)ccc1Nc1cc(Cc2c(Cl)cccc2Cl)nc2nc[nH]c(=O)c12` [Example 11, 7-(2,6-dichlorobenzyl)-5-{[2-methoxy-4-(piperazin-1-yl)phenyl]amino}pyrido[2,3-d]pyrimidin-4(3H)-one], for which the Ki worked out at 70 nM.

With `O=c1[nH]ccc2nc(Cc3c(Cl)cccc3Cl)cc(Nc3ccc(N4CCNCC4)cc3)c12` [Example 3, 2-(2,6-dichlorobenzyl)-4-{[4-(piperazin-1-yl)phenyl]amino}-1,6-naphthyridin-5(6H)-one], the Ki was 72 nM.

Take `COc1cc(N2CCNCC2)ccc1Nc1cc(Cc2ccccc2Cl)nc2cc[nH]c(=O)c12` [Example 31, 2-(2-chlorobenzyl)-4-{[2-methoxy-4-(piperazin-1-yl)phenyl]amino}-1,6-naphthyridin-5(6H)-one]: the Ki is 7 nM. For the molecule `COc1cc(C(=O)NCCN2CCN(C)CC2)ccc1Nc1cc(Cc2c(Cl)cccc2Cl)nc2cc[nH]c(=O)c12` [Example 25, 4-{[2-(2,6-dichlorobenzyl)-5-oxo-5,6-dihydro-1,6-naphthyridin-4-yl]amino}-3-methoxy-N-[2-(4-methylpiperazin-1-yl)ethyl]benzamide], the Ki was 22 nM. Take `COc1cc(N2CCC(N(C)C)CC2)ccc1Nc1nc(Cc2c(Cl)cccc2Cl)cc2cc[nH]c(=O)c12` [Example 10, 6-(2,6-dichlorobenzyl)-8-({4-[4-(dimethylamino)piperidin-1-yl]-2-methoxyphenyl}amino)-2,7-naphthyridin-1(2H)-one]: the Ki was 180 nM. On to `COc1cc(N2CCNCC2)ccc1Nc1nc(Cc2c(Cl)cccc2Cl)nc2cc[nH]c(=O)c12` [Example 14, 2-(2,6-dichlorobenzyl)-4-{[2-methoxy-4-(piperazin-1-yl)phenyl]amino}pyrido[4,3-d]pyrimidin-5(6H)-one], for which the Ki was 84 nM.

`COc1cc(C(=O)NCCN2CCCC2)ccc1Nc1nc(Cc2c(Cl)cccc2Cl)cc2cc[nH]c(=O)c12` [Example 22, 4-{[3-(2,6-dichlorobenzyl)-8-oxo-7,8-dihydro-2,7-naphthyridin-1-yl]amino}-3-methoxy-N-[2-(pyrrolidin-1-yl)ethyl]benzamide]: the Ki stood at 54 nM. For `COc1cc(N2CCNCC2)ccc1Nc1cc(Cc2c(Cl)cccc2Cl)nc2cc[nH]c(=O)c12` [Example 2, 2-(2,6-dichlorobenzyl)-4-{[2-methoxy-4-(piperazin-1-yl)phenyl]amino}-1,6-naphthyridin-5(6H)-one], the Ki amounted to 4 nM.

Take `COc1cc(C(=O)NCCN2CCN(C)CC2)ccc1Nc1nc(Cc2c(Cl)cccc2Cl)cc2cc[nH]c(=O)c12` [Example 26, 4-{[3-(2,6-dichlorobenzyl)-8-oxo-7,8-dihydro-2,7-naphthyridin-1-yl]amino}-3-methoxy-N-[2-(4-methylpiperazin-1-yl)ethyl]benzamide]: the Ki turned out to be 212 nM.
